Measured values taken from publication PMC9376960, “Ruthenium(II)–Tris-pyrazolylmethane Complexes Inhibit Cancer Cell Growth by Disrupting Mitochondrial Calcium Homeostasis” (Journal of Medicinal Chemistry, 2022).
Marks after values point to notes of the source that are not given here.

Columns and labels:
[1] = Solubility in water (D2O) by 1H NMR; type: physicochemical; conditions: for solubility: D2O, 21°C, sum of chloro and aquo complex after 2 h, 1H NMR, Me2SO2 standard
Procedure: A suspension of the selected ruthenium complex (3–5 mg) in a D2O solution (0.7 mL) containing Me2SO2 as the internal standard[115] (3.36 × 10^–3 M) was vigorously stirred at 21 °C for 2 h. The resulting saturated solution was filtered over celite, transferred into an NMR tube, and analyzed by ^1H NMR and ^31P NMR spectroscopy (delay time = 3 s; number of scans = 20). The concentration (solubility) was calculated by the relative integral (starting complex + aquo complex, C^βH signal in the ^1H spectrum) with respect to Me2SO2 (δ/ppm = 3.14). NMR data are given in the Supporting Information (Figures S36–S47).

HCT116 cells [2] = assay: Confocal microscopy imaging of actin and tubulin; type: cell-based, human; conditions: 24 h at IC50
Procedure: HCT116 cells were seeded on coverslips precoated with 0.1% gelatin in six-well culture plates at a density of 1 × 10^5 cells/well. […] Following the treatment, the cells were washed with PBS, fixed with 4% p-formaldehyde, washed, permeabilized with 0.1% Triton X-100, and blocked. Samples for actin staining were blocked with 1.5% BSA for 1 h and then stained with Alexa Fluor 488-conjugated Phalloidin (Thermo Fisher Scientific, 1:50 dilution, 20 min). Samples for tubulin staining were blocked with 5% goat serum for 1 h and incubated with primary antibody (anti-α-tubulin, Abcam, 1:200 dilution, 1 h) and Alexa Fluor-conjugated secondary antibody (goat antirabbit, Abcam, 1:500 dilution, 1 h). Both groups of samples were mounted with ProLong Diamond Antifade Mountant with DAPI (Invitrogen). Cells were visualized on a confocal microscope Leica TCS SP8 SMD.

RD = assay: MTT antiproliferative assay; type: cell-based, human; conditions: 72 h, mean ± SD
Procedure: All of the cell lines were cultivated in DMEM medium (high glucose 4.5 g L^–1, PAA, Pasching, Austria) supplemented with gentamycin (50 μg mL^–1, Serva, Heidelberg, Germany) and 10% heat-inactivated fetal bovine serum (PAA). The medium for MRC5pd30 cells was further supplemented by 1% nonessential amino acids (Sigma-Aldrich, Prague, Czech Republic). All cells were cultured as adherent monolayers in a humidified incubator at 37 °C in a 5% CO2 atmosphere and subcultured twice a week with an appropriate plating density. In vitro antiproliferative activity of Ru complexes was determined by the MTT or, alternatively, SRB assay as already described,[84] after 72 h of incubation of cells with various concentrations of the Ru complex. The reported IC50 values are an average of three independent experiments, each consisting of three replicates per concentration.

CHO-K1 = assay: MTT assay, wild-type cells; type: cell-based, Chinese hamster; conditions: 72 h
Excerpt: The human cervical carcinoma HeLa cells and human colorectal carcinoma cells HCT116 were kindly supplied by Professor B. Keppler, University of Vienna (Austria). Human rhabdomyosarcoma RD cells were purchased from the American Type Culture Collection (ATCC, Manassas, VA). Human breast cancer MCF-7 cells, human skin melanoma 518A2 cells, and human MRC5pd30 cells derived from normal lung tissue were purchased from the European Collection of Authenticated Cell Cultures (ECACC) (Salisbury, U.K.). Chinese hamster ovary CHO-K1 cell line (wild type) and its derivative MMC-2 carrying the ERCC3/XPB mutation (NER-deficient) cell line were kindly supplied by Dr. […], Cancer Research Institute, Slovak Academy of Sciences, Bratislava (Slovakia). In vitro antiproliferative activity of Ru complexes was determined by the MTT or, alternatively, SRB assay as already described,[84] after 72 h of incubation of cells with various concentrations of the Ru complex. The reported IC50 values are an average of three independent experiments, each consisting of three replicates per concentration.

HCT116 = assay: SRB antiproliferative assay; type: cell-based, human; conditions: SRB test, 72 h; mean ± SD
Procedure: In vitro antiproliferative activity of Ru complexes was determined by the MTT or, alternatively, SRB assay as already described,[84] after 72 h of incubation of cells with various concentrations of the Ru complex. The reported IC50 values are an average of three independent experiments, each consisting of three replicates per concentration.

[3] = tested on: mitochondrial membrane potential of HCT116 cells; assay: Mitochondrial membrane potential, TMRE assay; type: cell-based, human; conditions: 5 h; 10 μM and 2x or 4x IC50,72h
Procedure: Effects of Ru complexes on mitochondrial membrane potential were assessed by TMRE staining of HCT116 cells after treatment. First, HCT116 cells were seeded on a six-well plate at a 1.5 × 10^5 cells/well density. The next day, the cells were treated with equimolar (10 μM) and equitoxic (twofold or fourfold IC50,72h) concentrations of Ru complexes for 5 h. Then, the cells were collected and stained with 100 nM TMRE in a complete DMEM medium for 30 min at 37 °C in the dark. The TMRE-containing medium was then replaced with PBS, and cells were analyzed by a BD FACSverse flow cytometer (λex = 488 nm, λem = 586 nm).

[4] = Stability and chloride/water exchange in D2O (NMR); type: physicochemical; conditions: for Aquo species % in D2O after 48h: 48 h at 37 °C; for residual complex % in D2O: sum of chloro and aquo complexes; for Aquo species % in D2O at t0: t0 = after 2 h stirring in D2O
Procedure: The same samples prepared at point (a) were used in this experiment, apart from complex 1 that was dissolved in DMSO-d6/D2O 4:1 v/v solution (0.7 mL; [Ru] = approx. […]) containing Me2SO2 as the standard.[115] After ^1H and ^31P{^1H} NMR analyses described above at point (a) (time = t0), samples were heated at 37 °C for 48 h. After cooling to room temperature, ^1H and ^31P NMR spectra were recorded. The percentage of starting complex + related aquo complex was calculated by the relative integral (C^βH signal in the ^1H spectrum) with respect to Me2SO2 (c = 3.3 × 10^–3 mol·L^–1; δ/ppm = 3.14 in D2O; δ/ppm = 2.95 in DMSO-d6/D2O 4:1 v/v), see Table 2 and S1.

HCT116 cells [5] = assay: Calcium flux, Rhod-2 and Fluo-4 probes; type: cell-based, human; conditions: for effect on Ca2+ flux into the mitochondria induced by ionomycin: 2.5 h pretreatment, 10 μM (1 also 2.5, 5 μM), Rhod-2, 5 μM ionomycin
Procedure: The distribution of calcium ions in cytosol and mitochondria was studied using calcium-sensitive fluorescent probes. HCT116 cells were seeded at a density of 2 × 10^5 cells/well on six-well plates. After overnight cultivation, the cells were treated with Ru complexes at indicated concentrations for 2.5 h. The culture medium was then replaced with either 5 μM Rhod-2 or Fluo-4 in PBS supplemented with 2 mM CaCl2 and incubated for 30 min at 37 °C. At last, cells were harvested and suspended in PBS (with 2 mM CaCl2) or in PBS (with 2 mM CaCl2) supplemented with ionomycin (5 μM) for 30 min at 37 °C and analyzed using a BD FACSverse flow cytometer.

| Substance | solubility [1] | IC50 (HCT116) [µM] | Aquo species % in D2O after 48h [4] [%] | residual complex % in D2O ([4]; after 48 h at 37 °C) [%] | Aquo species % in D2O at t0 [4] [%] | solubility in water [1] | residual complex % in DMSO-d6/D2O ([4]; DMSO-d6/D2O (4:1 v/v) mixture, after 48 h at 37 °C) | effect on structure, shape, and layout of tubulin and actin networks (HCT116 cells [2]) | IC50 (RD) [µM] | IC50 (CHO-K1) [µM] | decrease of TMRE fluorescence (mitochondrial depolarization) [3] | effect on Ca2+ flux into the mitochondria induced by ionomycin (HCT116 cells [5]) | increase in the concentration of Ca2+ in the cytoplasm (HCT116 cells [5]; 2.5 h, 10 μM, Fluo-4) |
| --- | --- | --- | --- | --- | --- | --- | --- | --- | --- | --- | --- | --- | --- |
| [RuCl(κ^3-tpm)(PPh3)(CNCy)]Cl [compound 8] | 1.1 10^–3 mol·L^–1 | 5.2 ± 0.5 | 90 | 92 | 33 | – | – | did not significantly affect | 6.6 ± 0.7 | 16 ± 4 | more pronounced | less pronounced | – |
| [RuCl(κ^3-tpm)(PPh3)2]Cl [compound 1] | – | 0.45 ± 0.05 | – | – | – | insoluble in water | 69 ^c % | did not significantly affect | 2.2 ± 0.2 | 6.3 ± 0.2 | more pronounced | reduced Ca^2+ flux into the mitochondria | most prominent |
| [RuCl(κ^3-tpm)(PPh3){CNCH2P(O)(OEt2)2}]Cl [compound 9] | 4.6 10^–3 mol·L^–1 | 29 ± 3 | 73 | 93 | 0 | – | – | – | 24 ± 3 | – | – | insignificant | – |

Continued, in another order:

| solubility [1] | IC50 (HCT116) [µM] | Aquo species % in D2O after 48h [4] [%] | residual complex % in D2O ([4]; after 48 h at 37 °C) [%] | Aquo species % in D2O at t0 [4] [%] | solubility in water [1] | residual complex % in DMSO-d6/D2O ([4]; DMSO-d6/D2O (4:1 v/v) mixture, after 48 h at 37 °C) | Substance | effect on structure, shape, and layout of tubulin and actin networks (HCT116 cells [2]) | IC50 (RD) [µM] | IC50 (CHO-K1) [µM] | decrease of TMRE fluorescence (mitochondrial depolarization) [3] | effect on Ca2+ flux into the mitochondria induced by ionomycin (HCT116 cells [5]) | increase in the concentration of Ca2+ in the cytoplasm (HCT116 cells [5]; 2.5 h, 10 μM, Fluo-4) |
| --- | --- | --- | --- | --- | --- | --- | --- | --- | --- | --- | --- | --- | --- |
| 3.1 10^–3 mol·L^–1 | 5.8 ± 0.6 | 83 | 100 | 57 | – | – | [RuCl(κ^3-tpm)(PPh3){P(OMe)3}]Cl [compound 7] | did not significantly affect | 6 ± 1 | 25.6 ± 0.5 | less potent in reducing mitochondrial membrane potential | less pronounced | – |
| 3.4 10^–3 mol·L^–1 | 16 ± 2 | 93 | 100 | 75 | – | – | [RuCl(κ^3-tpm)(PPh3){NCHN(Me)(CH)2}]Cl [compound 3] | – | 27 ± 4 | – | – | – | – |
